Experimental data reported in patent publication US20040214789A1, “Therapeutics” (priority 2001, published 2004).
“Also recorded” adds a separate entry of the source.

What was measured:
[1] = test system: NAD glycohydrolase activity of P10 membranes from Jurkat T lymphocytes; test: Inhibition of NAD glycohydrolase (NADase) activity in the P10 fraction; assay type: biochemical, human; settings: for Inhibition of NADase activity in the P10 fraction (in words): FIG. 3; for Enzyme Activity (% of control), NAD glycohydrolase activity: P10 fraction
Description: (§1) Heavy membrane (P10 membranes) were prepared from Jurkat T cells (10^9 cells) as described (Guse et al., Nature 1999). P10-ADP-ribosyl cyclase was then incubated with 100 μM substrate (1,N^6-etheno-NAD) in the presence or absence of various concentrations of 8-Br-NHD. The formation of 1,N^6-etheno-cADPR and 1,N^6-etheno-ADPR was continuously monitored by fluorimetry (exc. 300 nm, em. 410 nm). Finally, the precise amount of products 1,N^6-etheno-cADPR and 1,N^6-etheno-ADPR was quantified by HPLC (da Silva et al., 1998a) using a fluorescence detector. Data are presented as mean±SD (n≧3).

[2] = test system: soluble ADP-ribosyl cyclase from Jurkat T lymphocytes; test: Inhibition of partially purified soluble ADP-ribosyl cyclase, cyclase activity; assay type: biochemical, human; settings: soluble fraction, 100 μM 1,N6-etheno-NAD substrate
Description: as §1, with “FIG. 1-a, b—Inhibition of intracellular, soluble ADP-ribosyl cyclase by 8-Br-NHD. Soluble protein (S100 protein) was” for “Heavy membrane (P10 membranes) were”, “1999) and soluble ADP-ribosyl cyclase was partially purified by hydroxyapatite chromatography. Partially purified ADP-ribosyl” for “1999). P10-ADP-ribosyl”, “mean ±SD” for “mean±SD”
(§2) Soluble protein (S100 protein) was prepared from Jurkat T cells (10^9 cells) as described (Guse et al., Nature 1999) and soluble ADP-ribosyl cyclase was partially purified by hydroxyapatite chromatography. […] The formation of 1,N^6-etheno-cADPR and 1,N^6-etheno-ADPR was continuously monitored by fluorimetry (exc. 300 nm, em. 410 nm). Finally, the precise amount of products 1,N^6-etheno-cADPR and 1,N^6-etheno-ADPR was quantified by HPLC (da Silva et al., 1998a) using a fluorescence detector. Data are presented as mean±SD (n≧3).

[3] = test system: P10 ADP-ribosyl cyclase from Jurkat T lymphocytes; test: Inhibition of P10 (heavy membrane) ADP-ribosyl cyclase, cyclase activity; assay type: biochemical, human; settings: for Inhibition of intracellular membrane bound P10 ADP-ribosyl cyclase (in words): heavy (P10) membranes from Jurkat T cells, FIG. 3; for Enzyme Activity (% of control), Cyclase activity: P10 fraction, 100 μM 1,N6-etheno-NAD substrate
Description: as §1

[4] = test system: NAD glycohydrolase activity of soluble protein fraction from Jurkat T lymphocytes; test: Inhibition of NAD glycohydrolase (NADase) activity in the soluble fraction; assay type: biochemical, human
Description: FIG. 1-a, b—Inhibition of intracellular, soluble ADP-ribosyl cyclase by 8-Br-NHD. Soluble protein (S100 protein) was prepared from Jurkat T cells (10^9 cells) as described (Guse et al., Nature 1999) and soluble ADP-ribosyl cyclase was partially purified by hydroxyapatite chromatography. Partially purified ADP-ribosyl cyclase was then incubated with 100 μM substrate (1,N^6-etheno-NAD) in the presence or absence of various concentrations of 8-Br-NHD. The formation of 1,N^6-etheno-cADPR and 1,N^6-etheno-ADPR was continuously monitored by fluorimetry (exc. 300 nm, em. 410 nm). Finally, the precise amount of products 1,N^6-etheno-cADPR and 1,N^6-etheno-ADPR was quantified by HPLC (da Silva et al., 1998a) using a fluorescence detector. Data are presented as mean ±SD (n≧3).
as §2

[5] = biological target: T1, NADase activity of intact Jurkat T cells expressing ecto-ADP-ribosyl cyclase (Homo sapiens, UniProt P28907); test: Inhibition of NADase activity on intact Jurkat T cells; assay type: cell-based; settings: FIG. 4
T1 construct: Intact Jurkat T cells expressing ecto-ADP-ribosyl cyclase; endogenous in cells; host or cells: intact Jurkat T cells
T1 sequence (P28907 1-300): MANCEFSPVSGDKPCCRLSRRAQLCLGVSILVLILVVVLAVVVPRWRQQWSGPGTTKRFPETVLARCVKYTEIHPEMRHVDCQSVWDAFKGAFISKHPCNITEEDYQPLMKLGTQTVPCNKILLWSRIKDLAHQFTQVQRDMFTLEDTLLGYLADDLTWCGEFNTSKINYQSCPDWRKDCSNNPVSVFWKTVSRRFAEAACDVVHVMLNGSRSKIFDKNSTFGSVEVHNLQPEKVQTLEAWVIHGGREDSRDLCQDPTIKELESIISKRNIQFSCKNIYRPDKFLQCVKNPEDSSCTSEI
Description: as §1, with “Intact” for “Heavy membrane (P10 membranes) were prepared from”, “expressing ecto-ADP-ribosyl cyclase (da Silva” for “(10^9 cells) as described (Guse”, “1998b) were” for “Nature 1999). P10-ADP-ribosyl cyclase was then”, “8-Br-NHD. It is likely that this enzyme is CD38.” for “8-Br-NHD.”

[6] = test system: human Jurkat T cells; test: Proliferation of Jurkat T cells, trypan blue cell counting; assay type: cell-based; settings: present for 4 or 5 days; FIG. 6
Description: FIG. 6—Inhibition of proliferation of the human Jurkat T cell line by 8-Br-NHD. Proliferation of intact Jurkat T cells was measured as described earlier (Guse et al., Cell Calcium 1997). Various concentrations of 8-Br-NHD were added to the cultures in 96 well plates, and were present for 4 or 5 days. The number of living cells was determined every day by cell counting of trypan blue stained cells. Data are mean±SD from 2 independent experiments.

[7] = biological target: T2, ecto-ADP-ribosyl cyclase (CD38) (Homo sapiens, UniProt P28907); test: Inhibition of cell surface ADP-ribosyl cyclase on intact Jurkat T cells; assay type: cell-based; settings: FIG. 4
T2 construct: Intact Jurkat T cells expressing ecto-ADP-ribosyl cyclase; endogenous in cells; host or cells: intact Jurkat T cells
T2 sequence (P28907 1-300): T1 sequence (P28907 1-300)
Description: as §1, with “Intact” for “Heavy membrane (P10 membranes) were prepared from”, “expressing ecto-ADP-ribosyl cyclase (da Silva” for “(10^9 cells) as described (Guse”, “1998b) were” for “Nature 1999). P10-ADP-ribosyl cyclase was then”, “8-Br-NHD. It is likely that this enzyme is CD38.” for “8-Br-NHD.”

[8] = test system: TCR/CD3-mediated Ca2+-signalling of the human Jurkat T cell line; test: TCR/CD3-mediated Ca2+ signalling, Fura2 ratiometric imaging; assay type: cell-based; settings: preincubation 250 or 500 μM for 30 min, anti-CD3 OKT3 stimulation, 25 min after stimulation; FIG. 5
Description: Intact Jurkat T cells were loaded with Fura2-AM, and Ca^2+ signalling was measured by digital ratiometric Ca^2+ imaging (Guse et al., Nature 1999). For technical reasons the excitation wavelengths were set to 340 and 365 nm, whereas emission was filtered at 520 nm. The cells were preincubated with 250 or 500 μM 8-Br-NHD for 30 min. Then the cells were stimulated by anti-CD3 antibody OKT3 ([…]) in solution, and the cells were transferred to the examination chamber on the digital imaging station. The intracellular Ca^+ concentration was then monitored for about 25 min with a sampling rate of 3 or 6/min. Data are presented as mean intracellular Ca^2+ concentration ±SEM 25 min after stimulation. Numbers in brackets indicate the number of cells investigated in 3 independent experiments.

[9] = test system: NADase; settings: positive controls; cited from earlier work

Row | SMILES | Inhibition of NADase activity in the P10 fraction (in words) [1] | Enzyme Activity (% of control), NAD glycohydrolase activity ([1]; inhibitor 10 μM) | Enzyme Activity (% of control), NAD glycohydrolase activity ([1]; inhibitor 100 μM) | Enzyme Activity (% of control), Cyclase activity ([2]; inhibitor 10 μM) | Enzyme Activity (% of control), Cyclase activity ([2]; inhibitor 100 μM) | Inhibition of intracellular membrane bound P10 ADP-ribosyl cyclase (in words) [3] | Enzyme Activity (% of control), Cyclase activity ([3]; inhibitor 10 μM) | Enzyme Activity (% of control), Cyclase activity ([3]; inhibitor 100 μM) | Enzyme Activity (% of control), NAD glycohydrolase activity ([4]; inhibitor 10 μM) | Enzyme Activity (% of control), NAD glycohydrolase activity ([4]; inhibitor 100 μM) | Inhibition of NADase activity, cell surface (in words) [5] | Proliferation of Jurkat T cells (in words) [6] | Inhibition of ecto-ADP-ribosyl cyclase (in words) [7] | Second, sustained phase of Ca2+ signaling (in words) [8] | Published as inhibitor of NADase [9] | Enzyme Activity (% of control), NAD glycohydrolase activity ([1]; inhibitor 1000 μM) | Enzyme Activity (% of control), Cyclase activity ([2]; inhibitor 1000 μM) | Enzyme Activity (% of control), Cyclase activity ([3]; inhibitor 1000 μM) | Enzyme Activity (% of control), NAD glycohydrolase activity ([4]; inhibitor 1000 μM)
1 | NC(=O)c1ccc[n+]([C@@H]2O[C@H](COP(=O)([O-])OP(=O)(O)OC[C@H]3O[C@@H](n4ccc5c(=O)[nH]cnc54)[C@H](O)[C@@H]3O)[C@@H](O)[C@H]2O)c1 [7-deaza-NHD, 7-deaza-nicotinamide hypoxanthine dinucleotide] | inhibit | 97.5 % of control | 83.3 % of control | 94.0 % of control | 69.3 % of control | inhibit | 97.9 % of control | 82.1 % of control | 94 % of control | 80.5 % of control | – | – | – | – | – | – | – | – | –
2 | NC(=O)c1ccc[n+](C2OC(COP(=O)([O-])OP(=O)(O)OCC3OC(n4c(Br)nc5c(=O)[nH]cnc54)C(O)C3O)C(O)C2O)c1 (stereo not drawn) [8-Br-NHD, nicotinamide 8-bromohypoxanthine dinucleotide] | inhibited with a similar pharmacology; also recorded: inhibit | 60.8 % of control | 15.6 % of control | 57.7 % of control | 13.0 % of control | dose-dependently inhibited; also recorded: inhibit | 59.2 % of control | 14.3 % of control | 55.5 % of control | 3.3 % of control | inhibited with a similar pharmacology | dose-dependently inhibits | dose-dependent inhibition | significantly reduced | – | – | – | – | –
3 | NC(=O)c1ccc[n+](C2OC(COP(=O)(O)OP(=O)(O)OCC3OC(n4cnc5c(=O)[nH]cnc54)C(O)C3O)C(O)C2O)c1 (stereo not drawn) [NHD, nicotinamide hypoxanthine dinucleotide] | inhibit | 59.0 % of control | 0 % of control | 46.0 % of control | 10.6 % of control | inhibit | 63.6 % of control | 11.26 % of control | 37.3 % of control | 13.5 % of control | – | – | – | – | – | – | – | – | –
4 | NC(=O)c1cccnc1 [Nicotinamide, nicotinamide, reference compound] | – | 94.2 % of control | 42.6 % of control | 99.2 % of control | 38.2 % of control | – | 94.0 % of control | 43.3 % of control | 95.2 % of control | 29.6 % of control | – | – | – | – | published as inhibitors of NADase | 12.4 % of control | 10.6 % of control | 14.9 % of control | 8.2 % of control
5 | NC(=O)c1ccc[n+]([C@@H]2O[C@H](COP(=O)([O-])O)[C@@H](O)[C@H]2O)c1 [β-NMN, β-nicotinamide mononucleotide, reference compound] | – | 115.0 % of control | 91.9 % of control | 80.5 % of control | 65.4 % of control | – | 112.3 % of control | 93.4 % of control | 81.3 % of control | 59.4 % of control | – | – | – | – | published as inhibitors of NADase | 48.8 % of control | 36.5 % of control | 56.9 % of control | 26.9 % of control
